Experimental data reported in the OligoGym collection.
Values joined by “and” are separate entries in the source; they are usually repeats but may differ in a detail not shown here. Identical values can stand only once. After the bases stand the sugars from the 5' end (letter, count) and the backbone: PS all phosphorothioate, else s phosphorothioate and o phosphodiester by linkage. Methylation of C is not given here. e = 2'-O-(2-methoxyethyl) (MOE); d = 2'-deoxy (DNA)

Target: DGAT2
Conditions: ASO

Row | Sequence | target mRNA inhibition (HepG2, 2.5 µM) | target mRNA inhibition (HepG2, 10 µM) | target mRNA inhibition (HepG2, 0.12 µM) | target mRNA inhibition (HepG2, 20 µM)
1 | GGATGTGTCATTTCCCCTGG (sugars e5 d10 e5, PS) | 66% | 96% |  | 
2 | GCCAGGTAAGGCCGTATGCC (sugars e5 d10 e5, PS) |  |  | 68% | 
3 | TGGTATCCAAAGATATAGTT (sugars e5 d10 e5, PS) |  |  | 42% | 
4 | TAGAAATACAATTCCTGGAT (sugars e5 d10 e5, PS) |  |  | 71% | 
5 | GTTTCGGACCCACTGTGACC (sugars e2 d13 e5, PS) |  |  | 70% | 
6 | GAGCTCAGAGACTCAGCCGC (sugars e3 d14 e3, PS) |  | 72% and 73% | 89% | 
7 | TGAGCTCTCAAGTCTTCCTC (sugars e5 d10 e5, PS) | 55% | 89% |  | 
8 | CTCAGAGACTCAGCCGCACC (sugars e2 d13 e5, PS) |  |  | 43% | 
9 | CCTGGTGGTCAGCAGGTTGT (sugars e5 d10 e5, PS) |  |  | 64% | 
10 | AGGACCCCGGAGTAGGCGGC (sugars e5 d10 e5, PS) | 60% | 92% | 52% and 76% | 
11 | CAGCAGTCTGCCTGATTCCC (sugars e5 d10 e5, PS) | 66% | 94% |  | 
12 | GTCTCATTCATCTGGGCCCT (sugars e5 d10 e5, PS) | 69% | 86% |  | 
13 | GCAGCAGGTACTCATGTTTG (sugars e5 d10 e5, PS) | 54% | 75% |  | 
14 | AGAGCTTCACCAGGGCCTCC (sugars e5 d10 e5, PS) |  |  | 46% | 
15 | GAGTAGGCGGCTATGAGGGT (sugars e5 d10 e5, PS) |  |  | 11% | 
16 | CATACTGGCATCTGGCAGGG (sugars e5 d10 e5, PS) | 65% | 83% |  | 
17 | ATCCAGTGCCCCATCTCCCA (sugars e5 d10 e5, PS) |  |  | 16% | 
18 | AGGCATGGAGCTCAGAGACT (sugars e3 d14 e3, PS) |  |  | 66% | 
19 | TAGCATTGCCACTCCCATTC (sugars e3 d14 e3, PS) |  |  | 68% | 
20 | AGAGCACAGCGATGAGCCAG (sugars e5 d10 e5, PS) | 52% | 85% |  | 
21 | GGACCCCGGAGTAGGCGGCT (sugars e5 d10 e5, PS) | 30% | 82% |  | 
22 | AATAGTCTATGGTGTCCCGG (sugars e5 d10 e5, PS) |  |  | 63% | 
23 | GGCATGGAGCTCAGAGACTC (sugars e2 d13 e5, PS) |  |  | 77% | 

Row | Sequence | target mRNA inhibition (HepG2, 2.5 µM) | target mRNA inhibition (HepG2, 10 µM) | target mRNA inhibition (HepG2, 0.12 µM) | target mRNA inhibition (HepG2, 20 µM)
24 | TTCTTTTAAATAACCCACAG (sugars e5 d10 e5, PS) |  |  | 8% | 
25 | AACCACAGCGATAATCACAC (sugars e5 d10 e5, PS) | 66% | 91% |  | 
26 | TTCTTGCCAGGCATGGAGCT (sugars e5 d10 e5, PS) |  |  | 54% | 
27 | TGCACCATAATCTGCACAGG (sugars e5 d10 e5, PS) | 75% and 71% | 80% and 91% |  | 
28 | TTTCGGACCCACTGTGACCT (sugars e2 d13 e5, PS) |  |  | 68% | 
29 | TGACCTTGGGATAGTCCCTC (sugars e5 d10 e5, PS) | 93% | 89% |  | 
30 | CCCAGTACTTTCTTCTCATG (sugars e5 d10 e5, PS) | 72% | 96% |  | 
31 | GCACAGCGATGAGCCAGCAA (sugars e5 d10 e5, PS) | 50% and 45% and 69% | 92% and 89% and 94% |  | 
32 | TTTCGGACCCACTGTGACCT (sugars e3 d14 e3, PS) |  |  | 61% | 
33 | TCAGTTCACCTCCAGGACCT (sugars e5 d10 e5, PS) |  |  | 46% | 
34 | TTCGGACCCACTGTGACCTC (sugars e3 d14 e3, PS) |  |  | 64% | 
35 | AGGAAGGACAGGACCCACTG (sugars e5 d10 e5, PS) |  |  | 38% | 
36 | CCTGGACAAGTCCTGCCCAT (sugars e2 d13 e5, PS) |  |  | 59% | 
37 | CTGTGAGGCCAAGGACAGAG (sugars e5 d10 e5, PS) | 50% | 81% |  | 
38 | GCACCATAATCTGCACAGGT (sugars e5 d10 e5, PS) | 88% and 86% | 93% and 89% and 92% |  | 
39 | GTTGTGTGTCTTCACCAGCT (sugars e3 d14 e3, PS) |  |  | 56% | 
40 | GACTCAGTGTCCTCCTTAGC (sugars e5 d10 e5, PS) |  | 73% |  | 
41 | CGGACTGAATGTCACCT (sugars e3 d10 e4, PS) | 60% and 68% | 87% and 83% |  | 
42 | TGGTCAGCAGGTTGTGTGTC (sugars e3 d14 e3, PS) |  |  | 57% | 
43 | CAGCCAAGTGAAGTAGAGCA (sugars e5 d10 e5, PS) |  |  | 41% | 
44 | GGCATGCTTCCTCCCACTTC (sugars e5 d10 e5, PS) | 67% | 72% |  | 
45 | TACAAAAGTCTGACATGGTG (sugars e5 d10 e5, PS) |  |  | 40% | 
46 | CCACAGGGCCCTTTCCAGAA (sugars e5 d10 e5, PS) | 58% and 53% | 87% and 85% |  | 

Row | Sequence | target mRNA inhibition (HepG2, 2.5 µM) | target mRNA inhibition (HepG2, 10 µM) | target mRNA inhibition (HepG2, 0.12 µM) | target mRNA inhibition (HepG2, 20 µM)
47 | AGATGCCACTTCATCAAGGC (sugars e5 d10 e5, PS) |  |  | 24% | 
48 | TTCTGTGGCCTCTGTGCTGA (sugars e5 d10 e5, PS) |  |  | 25% | 
49 | GCCAGTTTCACAAAGCCCTT (sugars e5 d10 e5, PS) |  |  | 34% | 
50 | GGCCCAGATTTAGCCACCAC (sugars e5 d10 e5, PS) | 51% | 79% |  | 
51 | ATGGAGCTCAGAGACTCAGC (sugars e2 d13 e5, PS) |  |  | 73% | 
52 | AGGAGCCCTCCTCGAAGATC (sugars e5 d10 e5, PS) |  |  | 31% | 
53 | ACAGGAAGCCTGGTGACTGC (sugars e5 d10 e5, PS) |  |  | 54% | 
54 | GGTCAGCCTCGGCCTGACGC (sugars e5 d10 e5, PS) |  |  | 11% | 
55 | TTGTACACTTCATTCTCTCC (sugars e5 d10 e5, PS) | 37% | 84% |  | 
56 | CAATGCCAATGCCTAGGTCA (sugars e5 d10 e5, PS) | 70% | 90% |  | 
57 | AATCCAACCCTTGTCACTCT (sugars e5 d10 e5, PS) | 33% | 94% |  | 
58 | TTCACCAGGGCCTCCATGTA (sugars e5 d10 e5, PS) |  |  | 20% | 
59 | CAGGTTGTGTGTCTTCACCA (sugars e5 d10 e5, PS) |  | 74% | 68% and 76% | 87%
60 | TAGCTCATGGTGGCGGCATC (sugars e5 d10 e5, PS) |  |  | 35% | 
61 | CCACTGGAGCACTGAGATGA (sugars e3 d14 e3, PS) |  |  | 62% | 
62 | ACCCACTGGAGCACTGAGAT (sugars e2 d13 e5, PS) |  |  | 52% | 
63 | CAGTGCTTTCTAAGTACCCT (sugars e5 d10 e5, PS) | 68% and 69% | 91% and 86% |  | 
64 | CAGCAGATGATGTCCTGCCT (sugars e5 d10 e5, PS) | 66% | 88% |  | 
65 | GTTCCAGTCAAACACCAGCC (sugars e5 d10 e5, PS) |  |  | 31% | 
66 | GCAGGCCTCGGGAAGCACCT (sugars e5 d10 e5, PS) | 69% and 67% | 93% and 87% |  | 
67 | GATAGCATTGCCACTCCCAT (sugars e2 d13 e5, PS) |  |  | 62% | 
68 | CCATGTACATGGTGTGGTAC (sugars e5 d10 e5, PS) |  |  | 52% | 
69 | CACTGGAGCACTGAGATGAC (sugars e5 d10 e5, PS) |  |  | 27% and 48% | 

Row | Sequence | target mRNA inhibition (HepG2, 2.5 µM) | target mRNA inhibition (HepG2, 10 µM) | target mRNA inhibition (HepG2, 0.12 µM) | target mRNA inhibition (HepG2, 20 µM)
70 | GACACACAATATCCATGGAC (sugars e5 d10 e5, PS) | 72% | 93% |  | 
71 | AGCCTGGACAAGTCCTGCCC (sugars e5 d10 e5, PS) |  |  | 79% | 79% and 92% and 91%
72 | GGCCCCAGGAGCCCTCCTCG (sugars e5 d10 e5, PS) |  |  | 40% | 
73 | ACAGAAAAGTGAGGCTTGGG (sugars e5 d10 e5, PS) |  |  | 40% | 
74 | CATTGCCACTCCCATTCTTT (sugars e3 d14 e3, PS) |  |  | 46% | 
75 | CAATGGGAATGGTATCGCAC (sugars e5 d10 e5, PS) | 68% and 62% | 93% and 85% |  | 
76 | GCTGAGTCTGTGCTGCA (sugars e3 d10 e4, PS) | 56% | 85% |  | 
77 | CTCCTGTTTGATGGGTAAAA (sugars e5 d10 e5, PS) | 90% | 80% |  | 
78 | GGGAAGGTAAACTGAGGCCA (sugars e5 d10 e5, PS) |  |  | 32% | 
79 | CTGCATAGCTGAGCAAATCC (sugars e5 d10 e5, PS) | 52% | 70% |  | 
80 | TCTCACATGCCTGAGGGCAG (sugars e5 d10 e5, PS) | 70% | 82% |  | 
81 | GAAATCCAATGCACCTTGTA (sugars e5 d10 e5, PS) | 63% | 94% |  | 
82 | ATGTATTTCTGGAACTTCTT (sugars e5 d10 e5, PS) |  |  | 45% | 
83 | AAGGAGTTTGTGTTTCCCAT (sugars e5 d10 e5, PS) | 71% and 65% | 91% and 85% |  | 
84 | GTTGGGCAGTCACCATTTGC (sugars e5 d10 e5, PS) | 21% | 58% |  | 
85 | GTAGGGCACCAGCCCCCAGG (sugars e5 d10 e5, PS) |  |  | 23% | 
86 | TCTGCGCGATTCACTGAGGA (sugars e5 d10 e5, PS) | 64% | 84% |  | 
87 | TAAAGAGGCTGGGCCATAGA (sugars e5 d10 e5, PS) |  |  | 21% | 
88 | AGAAAAACCAGTTACTCCAC (sugars e5 d10 e5, PS) |  |  | 4% | 
89 | GGTAAGGCCAAGGAAGTGAG (sugars e5 d10 e5, PS) | 66% | 80% |  | 
90 | CCCAGATTTAGCCACCACCT (sugars e5 d10 e5, PS) | 56% | 72% |  | 
91 | CACCATTTTCACAAGGAGAA (sugars e5 d10 e5, PS) | 86% | 82% |  | 
